In US20090221989A1, “SYSTEM AND METHOD FOR THE PREVENTION AND TREATMENT OF BACTERIAL AND FUNGAL INFECTIONS INCLUDING URINARY TRACT INFECTIONS (UTI) USING A HYPOHALOUS ACID COMPOSITION” (Novabay Pharmaceuticals Inc, priority 2005, published 2009):

Legend:
[1] = test system: urease positive Escherichia coli ATCC 25922 biofilm; experiment: Biofilm eradication in in vitro urinary catheter flow model; format: cell-based; details: for Log (CFU/cm2) / Log reduction: pH 4, 0.9% NaCl; for Log (CFU/cm2): 3-day biofilm, 10 min flow + 30 min stationary, average of 9 treatments; for Log reduction: versus saline
Procedure: A test system was established which utilized size 14 Foley catheters (supplied by NovaCal), which were cut and installed into a pre-sterilized flow system (FIG. 1) using aseptic techniques. The system consists of five parallel channels, one channel per catheter. Sterile medium was supplied to the system via a flow-break, to prevent back-growth into the medium reservoir. The entire system was placed in a 37° C. incubator. After conditioning the system with artificial urine medium for 30 minutes, 2.0 ml inoculum from an overnight culture of urease positive Escherichia coli ATCC 25922 grown in artificial urine medium at 37° C. was introduced into the system via the valve closest to the flow break (bladder side of catheter). Each inoculum was tested to confirm urease production. After inoculation, the system remained under static conditions (no flow) for two hours, to allow for bacterial attachment to the catheters. Flow of artificial urine medium was then initiated and maintained at a rate of 0.75 ml/min for 3 days. Initial experiments were conducted to evaluate consistency of biofilm formation in the model system. […] Day 5 and Day 7 counts remained at approximately that level. It was decided that treatment would be performed on Day 3 to prevent the possibility of biofilm detachment occurring. […] Sterile sections of tubing were attached from the syringe to the valve furthest from the flow break (bag end of the catheter). This end is designated as FRONT for sampling purposes. The pump was turned on and the treatments were introduced at 2.0 ml/min for 10 minutes through the catheters. Excess medium and treatment solution was captured in a waste container. After 10 minutes, the syringe pump was turned off and the solutions were left stationary in the catheters for 30 minutes. The solutions were then withdrawn back through the catheter into the syringe, medium flow was resumed for a 30 minute rinse time and the catheters were then sampled. For efficient sampling: Each catheter was divided into 3 segments (front, middle, end) and each segment was subsampled. One subsample was used to determine bacterial populations by plate count, another subsample was analyzed by staining with the LIVE/DEAD® BaclightTM bacterial viability kit ([…], Molecular Probes, Oregon, USA) using confocal laser microscopy (CSLM), the third sample was imaged using scanning electron microscopy (SEM). For viable cell counts, a 3.0 centimeter section of tubing was removed and scraped with a sterile stainless steel rod (using aseptic technique) into a tube containing 10.0 ml of sterile phosphate-buffered saline (PBS). The tubes were then sonicated for two minutes and the suspension was vortexed for one minute. The number of viable (culturable) bacteria was enumerated by serial dilution in PBS and plate counts using the spread-plate technique. Results were expressed as CFU/cm^2 and are calculated as follows: The surface area of the internal lumen of the catheter section scraped was determined to be 2.826 cm^2. Three treatment runs were performed on 3 catheters each. One treated with PBS or sterile 0.9% saline as control, one treated with 2 mM HOCl and one treated with 20 mM HOCl. The Log (CFU/cm^2) was calculated from the average of 9 treatments, consisting of 3 treatments of 3 catheter pieces for each Test Article.

[2] = test system: E. coli and Pr. mirabilis biofilm; experiment: Biofilm disinfection on Foley catheter pieces, both organisms pooled: re-culture OD600, overall CFU, visual examination; format: cell-based, Escherichia coli; Proteus mirabilis; details: HOCl 2 mM in 0.9% saline pH 3.5
Procedure: The ability of HOCl to destroy biofilm formation was evaluated as follows. First, biofilm was established on 1-cm-long pieces of catheter for 48 hours in nutrient broth in the presence of either Proteus mirabilis or Escherichia coli. Subsequently, the biofilm-bearing pieces of catheter were exposed to 2 mM HOCl in 0.9% saline at pH 3.5 over various periods of time. After the exposures the pieces of catheter were transferred into 1 mL of neutralizer broth to stop the reaction. 0.1 mL (10%) of the neutralizer broth was then plated out onto nutrient agar and the number of colonies was counted. The CFU (Colony Forming Unit) values obtained were multiplied by 10 to obtain the actual CFU/mL values per treated sample. In order to measure the amount of live bacteria left on the pieces of catheter following treatment, the biofilm-bearing pieces of catheter were transferred into tubes containing fresh growth medium. After allowing growth in a shaker at 37° C. for 4 hours, Optical Density (OD) was read at 600 nm. […] This was also shown by very low optical density readings (average of 0.057 OD600 units, individual data not listed) following the attempt to re-culture the bacteria from treated catheters.

[3] = test system: viable (culturable) bacteria on patient catheter; experiment: Ex-vivo treatment of a patient Foley catheter, viable plate counts; format: cell-based
Description: A Foley catheter was removed from a patient by hospital personnel and placed in a sterile bag. In the Bozeman Deaconess Hospital (BDH) lab, the outside of the catheter was wiped down with 70% ethanol. Then the catheter was aseptically cut into 3 catheter portions (bag-end, middle and patient-end). Each portion was cut into 3.0 cm long sections using a ruler and razor blades.
Three of the sections (one bag-end, one middle and one patient-end) designated as control were placed into sterile PBS. Three of the sections (one bag-end, one middle and one patient-end) were placed in 20 mM HOCl. All catheter sections were treated for 30 minutes individually in sterile glass tubes, each with sufficient solution to be immersed completely. After treatment, each 3 cm section was removed from the treatment tubes and the PBS control tubes and placed into a second glass tube containing sterile PBS for a 2 minute rinse in order to remove the treatment solution. The section was then removed from the tube and aseptically cut into 1.0 cm and 2.0 cm pieces. The 2.0 cm piece was placed in a tube containing 10 ml of sterile PBS, vortexed, sonicated and diluted for viable plate counts. The number of viable (culturable) bacteria was enumerated by serial dilution in PBS and plate counts using the spread-plate technique. Samples were plated on blood agar plates. Results will be expressed as colony-forming units/cm^2, CFU/cm^2 (calculated as 2.0 cm length×0.25 cm (radius)×3.14 (pi)=1.57 cm^2). The 1.0 cm piece was placed in 4% formaldehyde solution.

[4] = test system: Proteus mirabilis ATCC 29245 biofilm; experiment: Biofilm disinfection on 1-cm Foley catheter pieces, plate count; format: cell-based; details: HOCl 2 mM in 0.9% saline pH 3.5, 48 h biofilm
Procedure: (§1) We have devised a dynamic in vitro model using traditional microbiological methods to assess the antimicrobial efficacy of 2 mM HOCl in 0.9% saline at pH 3.5, as compared to physiological saline in disinfecting intra-luminal and extra-luminal indwelling Foley catheter.
(§2) Foley Catheter, manufactured by BARD HOCl (2 mM) in 0.9% saline pH 3.5 (150 mM) Escherichia coli ATCC 25922 Proteus mirabilis ATCC 29245
(§3) Neutralizer Broth: A broth containing dextrose, lecithin, sodium thiosulfate, pancreatic digest of casein, Tween® 80, yeast extract, sodium bisulfate, sodium thioglycollate, monopotassium phosphate, and bromcresol purple.
(§4) The ability of HOCl to destroy biofilm formation was evaluated as follows. First, biofilm was established on 1-cm-long pieces of catheter for 48 hours in nutrient broth in the presence of either Proteus mirabilis or Escherichia coli. Subsequently, the biofilm-bearing pieces of catheter were exposed to 2 mM HOCl in 0.9% saline at pH 3.5 over various periods of time. After the exposures the pieces of catheter were transferred into 1 mL of neutralizer broth to stop the reaction. 0.1 mL (10%) of the neutralizer broth was then plated out onto nutrient agar and the number of colonies was counted. The CFU (Colony Forming Unit) values obtained were multiplied by 10 to obtain the actual CFU/mL values per treated sample.

[5] = test system: Escherichia coli ATCC 25922 biofilm; experiment: as above; format: cell-based; details: HOCl 2 mM in 0.9% saline pH 3.5, 48 h biofilm
Procedure: as §1, §2, §3, §4

[6] = test system: urease positive Escherichia coli ATCC 25922 biofilm; experiment: Biofilm prevention in in vitro urinary catheter flow model; format: cell-based
Procedure: Day 0: The test system, as described in detail above, utilized size 14 Foley catheters, cut and installed into a pre-sterilized flow system using aseptic techniques. Sterile medium was supplied to the system via a flow-break, to prevent back-growth into the medium reservoir. The entire system was placed into a 37 AC incubator. After conditioning the system with artificial urine medium for 30 minutes, each catheter was treated with a disinfectant. 20.0 ml of each treatment solution was loaded into 30 ml syringes and connected to a syringe pump. Sterile sections of tubing were attached from the syringe to the valve furthest from the flow break (bag end of the catheter). This end is designated as FRONT for sampling purposes. The pump was turned on and the treatments were introduced at 2.0 ml/min for 10 minutes through the catheters. Excess medium and treatment solution was captured in a waste container. After 10 minutes, the syringe pump was turned off and the solutions were left stationary in the catheters for 30 minutes. The solutions were then withdrawn back through the catheter into the syringe. The catheters were then rinsed with sterile medium for 30 minutes. On Day 0 only: An inoculum from an overnight culture of urease positive Escherichia coli ATCC 25922 grown in artificial urine medium at 37° C. was introduced into the system via the valve closest to the flow break (bladder side of catheter). Each inoculum was tested for confirmation of urease production. After inoculation, the system remained under static conditions (no flow) for two hours, to allow for bacterial attachment to the catheters. Flow of artificial urine medium was then initiated and maintained at a rate of 0.75 ml/min. Days 1, 3 and 5: For viable cell counts, a 3.0 centimeter section of tubing was removed and scraped with a sterile stainless steel rod (using aseptic technique) into a tube containing 10.0 ml of sterile PBS. The tubes were then sonicated for two minutes and the suspension was vortexed for one minute. The number of viable (culturable) bacteria was enumerated by serial dilution in PBS and plate counts using the spread-plate technique. Results are expressed as CFU/cm^2 and were calculated as described in Phase One. Days 1 and 3: After sampling, the catheters were disinfected and rinsed with sterile medium as described above. Days 2 and 4: the catheters were disinfected and rinsed with sterile medium as described above. No samples were taken. Day 5: Samples were taken for imaging and both ends of the catheter were sampled for viable cell count data.

[7] = HOCl 20 mM, pH 4, 0.9% NaCl, 30 minutes immersion

OCl [HOCl, hypochlorous acid]
Log (CFU/cm2) ([1]; HOCl 2 mM): 4.8 Log (CFU/cm2) | Log reduction ([1]; HOCl 2 mM): −4.3 | bacterial removal, higher versus lower concentration ([1]; HOCl 20 mM versus 2 mM): significantly more bacterial removal than the lower concentration | Log (CFU/cm2) ([1]; HOCl 20 mM): 2.5 Log (CFU/cm2) | Log reduction ([1]; HOCl 20 mM): −6.6 | bacterial counts and presence of biofilm (visual interpretation from images) ([1]; HOCl at 2 mM and 20 mM): significantly reduced bacterial counts and the presence of biofilm | visual examination of biofilm on catheter surface [2]: subsequent removal | optical density readings after re-culture of treated catheters (average) ([2]; 4 h growth at 37° C. in fresh medium, average, individual data not listed): 0.057 OD600 units | recoverable CFU/mL bacteria ([2]; catheters infected 48 hours): minimal recoverable CFU/mL bacteria | Log reduction ([3]; HOCl 20 mM versus sterile PBS, average of 3 pieces): 2.4 | Average Log CFU/cm^2 on catheter section after treatment, Bag end [3, 7]: 0.50 Log CFU/cm^2 | Average Log CFU/cm^2 on catheter section after treatment, average 3 pieces [3, 7]: 0.53 Log CFU/cm^2 | Average Log CFU/cm^2 on catheter section after treatment, middle [3, 7]: 0.58 Log CFU/cm^2 | Average Log CFU/cm^2 on catheter section after treatment, patient end [3, 7]: 0.50 Log CFU/cm^2 | CFU/mL ([4]; exposure 5 min): 110 CFU/mL | CFU/mL ([4]; exposure 10 min): 40 CFU/mL | CFU/mL ([4]; exposure 20 min): 50 CFU/mL | CFU/mL ([4]; exposure 30 min): 0 CFU/mL | CFU/mL ([4]; exposure 45 min): 20 CFU/mL | CFU/mL ([4]; exposure 60 min): 0 CFU/mL | CFU/mL ([4]; exposure 120 min): 90 CFU/mL | CFU/mL ([4]; exposure <1 min): >>3000 CFU/mL | CFU/mL ([5]; exposure 5 min): 460 CFU/mL | CFU/mL ([5]; exposure 10 min): 0 CFU/mL | CFU/mL ([5]; exposure 20 min): 0 CFU/mL | CFU/mL ([5]; exposure 30 min): 0 CFU/mL | CFU/mL ([5]; exposure 45 min): 0 CFU/mL | CFU/mL ([5]; exposure 60 min): 0 CFU/mL | CFU/mL ([5]; exposure 120 min): 0 CFU/mL | CFU/mL ([5]; exposure <1 min): 50 CFU/mL | inhibition of biofilm formation ([6]; 5 day duration, 20 mM): appeared to inhibit biofilm formation | viable cell count Day 1 ([6]; Day 1, daily treatment, HOCl 20 mM pH 4 0.9% NaCl, vinegar 1:3 in water, Neomycin 1 ml in 1000 ml saline): 3.5 CFU/cm^2 | viable cell count Day 3 ([6]; Day 3, daily treatment, HOCl 20 mM pH 4 0.9% NaCl, vinegar 1:3 in water, Neomycin 1 ml in 1000 ml saline): 0.0 CFU/cm^2 | viable cell count Day 5 “Front” (bag end) ([6]; Day 5, bag end, daily treatment, HOCl 20 mM pH 4 0.9% NaCl, vinegar 1:3 in water, Neomycin 1 ml in 1000 ml saline): 0.0 CFU/cm^2 | viable cell count Day 5 “End” (bladder end) ([6]; Day 5, bladder end, daily treatment, HOCl 20 mM pH 4 0.9% NaCl, vinegar 1:3 in water, Neomycin 1 ml in 1000 ml saline): 0.0 CFU/cm^2 | inhibition of biofilm formation compared to vinegar and Neosporin ([6]; especially by Day 5, 20 mM): significantly better at inhibiting biofilm formation
